Data: ChEMBL document CHEMBL4837249, “Discovery of Potent Antiallergic Agents Based on an o-Aminopyridinyl Alkynyl Scaffold” (J Med Chem, 2021)

Experiments:
[1] = biological target: T1, Tyrosine-protein kinase ABL1 (Homo sapiens, UniProt P00519); experiment: Inhibition of human recombinant ABL1 using ATP/Ulight-TK peptide at 5 nM incubated for 15 mins relative to control
[2] = biological target: Protein-tyrosine kinase 6 (Homo sapiens) (UniProt Q13882); experiment: Inhibition of human recombinant BRK (174 to 734) at 5 nM by radiometric scintillation counting analysis relative to control
[3] = biological target: Tyrosine-protein kinase BTK (Homo sapiens) (UniProt Q06187); experiment: Inhibition of human full length recombinant BTK at 5 nM by radiometric scintillation counting analysis relative to control
[4] = biological target: T2, Tyrosine-protein kinase Fgr (Homo sapiens, UniProt P09769); experiment: Inhibition of human recombinant FGR (456 to 770) at 5 nM by radiometric scintillation counting analysis relative to control
[5] = biological target: T3, Macrophage colony-stimulating factor 1 receptor (Homo sapiens, UniProt P07333); experiment: Inhibition of human recombinant CSF1R using ATP/Ulight-TK peptide at 5 nM incubated for 15 mins relative to control
[6] = biological target: T4, Tyrosine-protein kinase TXK (Homo sapiens) (UniProt P42681); experiment: Inhibition of human recombinant […] (256 to end) at 5 nM by radiometric scintillation counting analysis relative to control
T4 sequence (whole entry): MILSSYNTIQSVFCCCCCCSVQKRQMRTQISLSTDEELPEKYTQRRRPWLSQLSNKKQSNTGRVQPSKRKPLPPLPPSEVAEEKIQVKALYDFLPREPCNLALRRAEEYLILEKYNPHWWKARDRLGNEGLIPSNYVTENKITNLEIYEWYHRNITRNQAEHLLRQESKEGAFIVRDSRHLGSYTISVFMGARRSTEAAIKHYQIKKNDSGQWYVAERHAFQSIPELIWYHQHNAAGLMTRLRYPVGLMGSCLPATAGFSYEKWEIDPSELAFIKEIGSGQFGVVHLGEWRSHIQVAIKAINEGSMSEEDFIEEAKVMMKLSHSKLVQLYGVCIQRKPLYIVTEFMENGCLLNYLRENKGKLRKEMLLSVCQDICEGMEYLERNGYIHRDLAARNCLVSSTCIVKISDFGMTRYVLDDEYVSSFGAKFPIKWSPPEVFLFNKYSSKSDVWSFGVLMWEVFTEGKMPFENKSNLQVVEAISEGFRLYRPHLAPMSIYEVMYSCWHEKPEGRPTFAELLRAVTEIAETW

[7] = biological target: T5, Tyrosine-protein kinase ZAP-70 (Homo sapiens) (UniProt P43403); experiment: Inhibition of human full length recombinant ZAP70 at 5 nM by radiometric scintillation counting analysis relative to control
T5 sequence (whole entry): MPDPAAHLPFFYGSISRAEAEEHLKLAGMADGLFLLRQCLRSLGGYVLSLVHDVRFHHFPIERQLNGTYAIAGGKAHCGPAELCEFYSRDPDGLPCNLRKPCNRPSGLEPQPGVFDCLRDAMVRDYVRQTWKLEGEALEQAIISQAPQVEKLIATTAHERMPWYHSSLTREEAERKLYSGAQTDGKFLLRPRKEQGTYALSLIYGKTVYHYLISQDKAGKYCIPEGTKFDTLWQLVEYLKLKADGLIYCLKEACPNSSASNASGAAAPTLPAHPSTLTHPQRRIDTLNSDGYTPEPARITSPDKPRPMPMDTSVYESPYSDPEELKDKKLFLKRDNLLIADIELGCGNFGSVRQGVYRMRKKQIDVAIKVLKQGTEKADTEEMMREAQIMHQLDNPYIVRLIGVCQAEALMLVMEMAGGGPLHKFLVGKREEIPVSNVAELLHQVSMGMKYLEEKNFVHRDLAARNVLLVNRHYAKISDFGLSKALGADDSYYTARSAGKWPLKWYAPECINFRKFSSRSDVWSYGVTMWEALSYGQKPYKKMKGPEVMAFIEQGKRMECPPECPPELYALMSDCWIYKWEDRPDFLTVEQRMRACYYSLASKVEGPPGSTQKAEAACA

[8] = biological target: T1, Tyrosine-protein kinase ABL1; experiment: Inhibition of human recombinant ABL1 using ATP/Ulight-TK peptide at 50 nM incubated for 15 mins relative to control
[9] = biological target: Tyrosine-protein kinase Blk (Homo sapiens, UniProt P51451); experiment: Inhibition of human full length recombinant BLK at 50 nM by radiometric scintillation counting analysis relative to control
[10] = biological target: Mast/stem cell growth factor receptor Kit (Homo sapiens) (UniProt P10721); experiment: Inhibition of human recombinant c-Kit at 50 nM by radiometric scintillation counting analysis relative to control
[11] = biological target: Tyrosine-protein kinase Lyn (Homo sapiens, UniProt P07948); experiment: Inhibition of human full length recombinant LYN at 50 nM by radiometric scintillation counting analysis relative to control
[12] = biological target: Platelet-derived growth factor receptor beta (Homo sapiens) (UniProt P09619); experiment: Inhibition of human recombinant PDGFRbeta (557 to end) at 50 nM by radiometric scintillation counting analysis relative to control
[13] = biological target: Tyrosine-protein kinase Srms (Homo sapiens, UniProt Q9H3Y6); experiment: Inhibition of human SRMS at 50 nM by radiometric scintillation counting analysis relative to control
[14] = biological target: T1, Tyrosine-protein kinase ABL1; experiment: Inhibition of human recombinant ABL1 using ATP/Ulight-TK peptide at 500 nM incubated for 15 mins relative to control
[15] = biological target: Protein-tyrosine kinase 6 (Homo sapiens) (UniProt Q13882); experiment: Inhibition of human recombinant BRK (174 to 734) at 500 nM by radiometric scintillation counting analysis relative to control
[16] = biological target: Tyrosine-protein kinase BTK (Homo sapiens) (UniProt Q06187); experiment: Inhibition of human full length recombinant BTK at 500 nM by radiometric scintillation counting analysis relative to control
[17] = biological target: Tyrosine-protein kinase CSK (Homo sapiens, UniProt P41240); experiment: Inhibition of human full length recombinant CSK at 500 nM by radiometric scintillation counting analysis relative to control
[18] = biological target: T2, Tyrosine-protein kinase Fgr; experiment: Inhibition of human recombinant FGR (456 to 770) at 500 nM by radiometric scintillation counting analysis relative to control
[19] = biological target: T3, Macrophage colony-stimulating factor 1 receptor; experiment: Inhibition of human recombinant CSF1R using ATP/Ulight-TK peptide at 500 nM incubated for 15 mins relative to control
[20] = biological target: Tyrosine-protein kinase Fyn (Homo sapiens, UniProt P06241); experiment: Inhibition of human recombinant Fyn (218 to end) at 500 nM incubated for 15 mins relative to control
[21] = biological target: Platelet-derived growth factor receptor alpha (Homo sapiens) (UniProt P16234); experiment: Inhibition of human recombinant PDGFRalpha (550 to end) at 500 nM by radiometric scintillation counting analysis relative to control
[22] = biological target: Platelet-derived growth factor receptor beta (Homo sapiens) (UniProt P09619); experiment: Inhibition of human recombinant PDGFRbeta (557 to end) at 500 nM by radiometric scintillation counting analysis relative to control
[23] = biological target: T4, Tyrosine-protein kinase TXK (Homo sapiens); experiment: Inhibition of human recombinant Txk (256 to end) at 500 nM by radiometric scintillation counting analysis relative to control
[24] = biological target: T5, Tyrosine-protein kinase ZAP-70 (Homo sapiens); experiment: Inhibition of human full length recombinant ZAP70 at 500 nM by radiometric scintillation counting analysis relative to control
[25] = biological target: Tyrosine-protein kinase JAK1 (Homo sapiens) (UniProt P23458); experiment: Inhibition of human recombinant JAK1 at 50 nM radiometric scintillation counting analysis relative to control

Sequence of Tyrosine-protein kinase CSK (P41240 2-450 limits assumed): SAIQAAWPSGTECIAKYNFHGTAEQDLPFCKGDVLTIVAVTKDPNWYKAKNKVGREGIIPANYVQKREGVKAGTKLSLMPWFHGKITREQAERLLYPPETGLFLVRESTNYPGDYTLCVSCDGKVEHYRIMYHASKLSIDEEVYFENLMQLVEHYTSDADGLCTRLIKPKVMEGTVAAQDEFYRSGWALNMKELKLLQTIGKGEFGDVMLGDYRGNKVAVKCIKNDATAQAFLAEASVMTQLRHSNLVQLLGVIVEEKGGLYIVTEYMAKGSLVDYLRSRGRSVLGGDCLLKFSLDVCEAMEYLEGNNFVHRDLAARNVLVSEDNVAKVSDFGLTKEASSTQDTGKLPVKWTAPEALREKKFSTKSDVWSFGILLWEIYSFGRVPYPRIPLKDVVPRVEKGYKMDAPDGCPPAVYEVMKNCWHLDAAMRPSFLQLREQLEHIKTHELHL
Sequence of Tyrosine-protein kinase Lyn (P07948 2-512 limits assumed): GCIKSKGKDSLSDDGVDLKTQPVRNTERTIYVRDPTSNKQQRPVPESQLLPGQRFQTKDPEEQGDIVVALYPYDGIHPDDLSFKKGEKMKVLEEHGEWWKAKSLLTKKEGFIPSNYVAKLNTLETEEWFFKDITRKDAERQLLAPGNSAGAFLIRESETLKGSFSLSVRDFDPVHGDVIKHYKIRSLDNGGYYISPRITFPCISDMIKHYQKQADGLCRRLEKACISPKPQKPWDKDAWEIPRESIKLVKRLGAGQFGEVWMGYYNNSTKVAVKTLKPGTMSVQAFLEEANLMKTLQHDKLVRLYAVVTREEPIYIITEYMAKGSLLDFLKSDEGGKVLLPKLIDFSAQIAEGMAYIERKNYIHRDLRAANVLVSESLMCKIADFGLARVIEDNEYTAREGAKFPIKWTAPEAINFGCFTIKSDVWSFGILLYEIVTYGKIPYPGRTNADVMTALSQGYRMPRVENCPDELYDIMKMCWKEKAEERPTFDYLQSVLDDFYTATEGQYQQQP
Sequence of Platelet-derived growth factor receptor beta (Homo sapiens) (P09619 whole entry): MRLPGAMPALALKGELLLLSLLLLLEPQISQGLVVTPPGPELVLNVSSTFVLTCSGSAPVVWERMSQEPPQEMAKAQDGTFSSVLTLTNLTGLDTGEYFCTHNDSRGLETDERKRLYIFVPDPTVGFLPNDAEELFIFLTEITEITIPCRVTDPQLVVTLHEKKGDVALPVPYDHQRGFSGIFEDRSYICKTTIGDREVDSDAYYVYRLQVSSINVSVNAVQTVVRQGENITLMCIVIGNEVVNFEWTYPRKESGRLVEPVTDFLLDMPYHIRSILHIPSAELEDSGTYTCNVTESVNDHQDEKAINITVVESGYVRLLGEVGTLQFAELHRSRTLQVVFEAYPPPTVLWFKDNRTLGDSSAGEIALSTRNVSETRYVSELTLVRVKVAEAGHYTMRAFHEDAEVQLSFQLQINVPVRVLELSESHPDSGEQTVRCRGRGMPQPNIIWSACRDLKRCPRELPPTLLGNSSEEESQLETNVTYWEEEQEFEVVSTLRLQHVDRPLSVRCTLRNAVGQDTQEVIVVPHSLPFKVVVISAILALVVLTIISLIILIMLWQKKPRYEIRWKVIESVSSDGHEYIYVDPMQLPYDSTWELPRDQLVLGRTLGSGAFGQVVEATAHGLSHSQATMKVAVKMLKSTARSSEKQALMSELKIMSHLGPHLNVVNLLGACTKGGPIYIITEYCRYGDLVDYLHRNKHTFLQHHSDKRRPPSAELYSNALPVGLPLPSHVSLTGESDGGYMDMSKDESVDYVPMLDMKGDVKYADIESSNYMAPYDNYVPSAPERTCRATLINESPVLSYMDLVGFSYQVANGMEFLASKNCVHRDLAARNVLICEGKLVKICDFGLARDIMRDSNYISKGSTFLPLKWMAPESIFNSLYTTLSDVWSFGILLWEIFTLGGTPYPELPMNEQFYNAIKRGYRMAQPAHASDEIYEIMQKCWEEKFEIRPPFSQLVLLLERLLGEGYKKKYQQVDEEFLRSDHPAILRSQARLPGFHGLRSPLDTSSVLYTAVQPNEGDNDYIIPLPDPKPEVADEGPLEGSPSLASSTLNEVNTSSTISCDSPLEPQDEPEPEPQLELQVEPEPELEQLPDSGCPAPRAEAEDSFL
T2 sequence (P09769 2-529 limits assumed): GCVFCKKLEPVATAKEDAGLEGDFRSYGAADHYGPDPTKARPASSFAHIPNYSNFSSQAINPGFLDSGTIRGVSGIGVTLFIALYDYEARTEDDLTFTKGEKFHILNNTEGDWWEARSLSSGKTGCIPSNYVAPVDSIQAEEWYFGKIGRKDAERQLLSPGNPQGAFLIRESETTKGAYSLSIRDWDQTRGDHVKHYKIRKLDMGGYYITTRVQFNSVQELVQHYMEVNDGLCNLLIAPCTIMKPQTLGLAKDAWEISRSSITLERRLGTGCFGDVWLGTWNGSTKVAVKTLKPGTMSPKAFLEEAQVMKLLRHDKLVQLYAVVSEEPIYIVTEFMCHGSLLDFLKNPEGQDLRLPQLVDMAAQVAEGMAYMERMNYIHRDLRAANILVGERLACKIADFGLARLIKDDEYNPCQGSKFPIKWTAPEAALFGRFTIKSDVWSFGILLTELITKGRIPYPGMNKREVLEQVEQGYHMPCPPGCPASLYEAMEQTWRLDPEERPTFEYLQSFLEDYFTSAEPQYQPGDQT
Sequence of Tyrosine-protein kinase Srms (Q9H3Y6 whole entry): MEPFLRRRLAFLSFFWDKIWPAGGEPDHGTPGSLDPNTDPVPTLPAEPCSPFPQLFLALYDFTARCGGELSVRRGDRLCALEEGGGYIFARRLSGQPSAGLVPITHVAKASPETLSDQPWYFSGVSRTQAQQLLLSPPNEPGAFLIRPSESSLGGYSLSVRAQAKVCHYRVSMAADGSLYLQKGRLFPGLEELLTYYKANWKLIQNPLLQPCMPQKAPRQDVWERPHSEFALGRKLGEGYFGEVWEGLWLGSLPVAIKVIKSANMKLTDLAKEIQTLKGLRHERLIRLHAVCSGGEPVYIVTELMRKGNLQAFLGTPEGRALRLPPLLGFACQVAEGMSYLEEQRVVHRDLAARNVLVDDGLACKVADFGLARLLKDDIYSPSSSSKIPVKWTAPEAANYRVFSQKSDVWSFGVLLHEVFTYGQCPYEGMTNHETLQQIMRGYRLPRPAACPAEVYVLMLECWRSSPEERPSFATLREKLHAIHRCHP
Sequence of Tyrosine-protein kinase Blk (P51451 2-505 limits assumed): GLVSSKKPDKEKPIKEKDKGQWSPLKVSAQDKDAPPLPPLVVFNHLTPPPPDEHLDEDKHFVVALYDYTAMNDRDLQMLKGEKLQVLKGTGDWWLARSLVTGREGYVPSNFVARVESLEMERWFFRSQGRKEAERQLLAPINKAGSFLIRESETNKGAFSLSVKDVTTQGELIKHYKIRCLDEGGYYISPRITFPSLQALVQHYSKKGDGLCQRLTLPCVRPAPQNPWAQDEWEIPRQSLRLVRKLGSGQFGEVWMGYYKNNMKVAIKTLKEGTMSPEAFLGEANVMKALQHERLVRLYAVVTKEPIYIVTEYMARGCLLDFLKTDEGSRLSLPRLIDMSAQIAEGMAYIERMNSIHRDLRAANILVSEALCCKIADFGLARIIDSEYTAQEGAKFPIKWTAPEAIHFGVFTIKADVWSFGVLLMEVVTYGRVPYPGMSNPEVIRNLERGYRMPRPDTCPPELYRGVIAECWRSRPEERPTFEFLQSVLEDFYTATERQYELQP
Sequence of Mast/stem cell growth factor receptor Kit (Homo sapiens) (P10721 whole entry): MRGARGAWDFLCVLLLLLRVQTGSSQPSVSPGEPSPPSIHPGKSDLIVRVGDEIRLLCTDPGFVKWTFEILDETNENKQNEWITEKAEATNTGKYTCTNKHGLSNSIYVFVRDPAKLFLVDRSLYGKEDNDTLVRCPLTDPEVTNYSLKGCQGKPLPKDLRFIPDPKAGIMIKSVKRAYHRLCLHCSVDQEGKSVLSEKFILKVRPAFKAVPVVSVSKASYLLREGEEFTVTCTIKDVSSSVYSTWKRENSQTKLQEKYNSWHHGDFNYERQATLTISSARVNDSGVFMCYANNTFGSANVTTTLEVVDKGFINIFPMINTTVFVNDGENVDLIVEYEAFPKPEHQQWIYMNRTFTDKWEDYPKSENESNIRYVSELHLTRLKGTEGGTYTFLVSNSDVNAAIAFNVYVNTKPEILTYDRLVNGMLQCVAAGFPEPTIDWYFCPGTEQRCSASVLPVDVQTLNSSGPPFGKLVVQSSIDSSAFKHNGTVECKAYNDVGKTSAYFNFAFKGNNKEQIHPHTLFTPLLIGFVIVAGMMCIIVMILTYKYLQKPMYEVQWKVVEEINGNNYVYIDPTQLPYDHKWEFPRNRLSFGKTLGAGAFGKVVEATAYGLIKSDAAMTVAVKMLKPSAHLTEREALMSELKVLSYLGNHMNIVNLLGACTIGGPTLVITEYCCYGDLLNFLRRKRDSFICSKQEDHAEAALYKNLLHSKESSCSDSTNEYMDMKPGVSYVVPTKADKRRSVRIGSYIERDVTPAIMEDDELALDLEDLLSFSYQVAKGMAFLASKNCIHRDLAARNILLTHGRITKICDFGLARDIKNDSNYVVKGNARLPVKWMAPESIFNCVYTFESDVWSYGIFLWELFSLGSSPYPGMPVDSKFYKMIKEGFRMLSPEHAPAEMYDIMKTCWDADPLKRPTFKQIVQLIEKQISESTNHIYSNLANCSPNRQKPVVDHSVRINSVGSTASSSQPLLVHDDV
Sequence of Protein-tyrosine kinase 6 (Homo sapiens) (Q13882 whole entry, looked up): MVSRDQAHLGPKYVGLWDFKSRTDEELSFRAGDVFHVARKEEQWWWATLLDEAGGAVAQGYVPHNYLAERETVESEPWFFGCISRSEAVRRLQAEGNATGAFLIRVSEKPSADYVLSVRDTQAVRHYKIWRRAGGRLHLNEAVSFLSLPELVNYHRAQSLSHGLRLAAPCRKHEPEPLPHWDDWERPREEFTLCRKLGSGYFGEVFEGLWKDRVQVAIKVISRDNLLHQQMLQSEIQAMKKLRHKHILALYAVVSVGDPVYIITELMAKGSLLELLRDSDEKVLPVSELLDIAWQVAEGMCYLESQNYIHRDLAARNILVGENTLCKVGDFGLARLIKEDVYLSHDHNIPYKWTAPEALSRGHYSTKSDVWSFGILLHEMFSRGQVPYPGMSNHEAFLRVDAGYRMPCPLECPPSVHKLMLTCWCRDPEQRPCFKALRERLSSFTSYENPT

Compound | inhibition [1] [%] | inhibition [2] [%] | inhibition [3] [%] | inhibition [4] [%] | inhibition [5] [%] | inhibition [6] [%] | inhibition [7] [%] | inhibition [8] [%] | inhibition [9] [%] | inhibition [10] [%] | inhibition [11] [%] | inhibition [12] [%] | inhibition [13] [%] | inhibition [14] [%] | inhibition [15] [%] | inhibition [16] [%] | inhibition [17] [%] | inhibition [18] [%] | inhibition [19] [%] | inhibition [20] [%] | further results
Cc1ccc(C(=O)Nc2cc(C(F)(F)F)cc(C(F)(F)F)c2)cc1C#Cc1cc(-c2cnn(C)c2)cnc1N | 22 | -2 | 16 | 27 | 25 | 17 | 9 | 88 | 56 | -10 | 105 | 6 | 51 | 104 | 22 | 49 | 71 | 101 | 96 | 97 | inhibition [21]: 18%; inhibition [22]: 12%; inhibition [23]: 86%; inhibition [24]: -1%; inhibition [25]: 37%
Cc1ccc(C(=O)Nc2ccc(OC(F)(F)F)cc2)cc1C#Cc1cc(-c2cnn(C)c2)cnc1N | 58 | 17 | -4 | 9 | 39 | 12 | -7 | 96 | 69 | 15 | 99 | 13 | 22 | 102 | 92 | -2 | 23 | 77 | 90 | 96 | inhibition [21]: 82%; inhibition [22]: 71%; inhibition [23]: 42%; inhibition [24]: -4%; inhibition [25]: 8%
Cc1ccc(C(=O)Nc2ccc(Cl)cc2Cl)cc1C#Cc1cc(-c2cnn(C)c2)cnc1N | 32 | 9 | 8 | 4 | 34 | 2 | 20 | 64 | 13 | 21 | 93 | 54 | 19 | 89 | 85 | 11 | 39 | 46 | 98 | 64 | inhibition [21]: 94%; inhibition [22]: 83%; inhibition [23]: -1%; inhibition [24]: 20%; inhibition [25]: -6%
